Converted amounts (≈) assume the structure as drawn.
Legend:
[1] = tested on: S. aureus FDA209P (ATCC 6538P); assay: microbe, parasite or virus in culture; format: cell-based, Staphylococcus aureus; settings: Example 1, Tables 1 to 10; for MIC: Staphylococcus aureus, read-out: MIC (mg/L) FDA209P
Experimental: (§1) S. aureus Mu50 (refer to Hiramatsu, K., Hanaki H., et al., J. Antimicrob. Chemother., 1997, 40(1), 135-6) or S. aureus FDA209P (ATCC 6538P) was cultured overnight at 37° C. in 4 mL of TBS (Tryptical Soy Broth, produced by Becton Dickinson) with shaking. After completion of the culture, the cells were suspended in fresh TBS to prepare a cell suspension showing an absorbance of 0.3 at 578 nm. Then, the cell suspension was diluted 500 times with CAMHB mentioned above.
(§2) CAMHB containing each test compound at each of the aforementioned concentrations was added to each well of a 96-well plate in a volume of 50 μL/well, the aforementioned cell suspension diluted 500 time was added to the well in a volume of 50 μL/well, and stationary culture was carried out overnight at 37° C.
(§3) MIC values (mg/L) of the flavones and quinolones against the strains were measured in the same manner as that of the measurement of MIC of Example 1, except that CAMHB containing each of the aforementioned flavones and quinolones prepared in Example 2 was used instead of CAMHB containing each of the test compounds.
(§4) MIC values of the flavones and quinolone for the strains were measured in the same manners as those of Example 1, except that S. aureus Mu50 NR-1 was also used as Staphylococcus aureus in addition to S. aureus FDA209P and S. aureus Mu50, cell suspensions of the strains were prepared.
(§5) In the same manner as that of Example 1, MIC values of M-246, M-21, J-Q21, and J-Q12.1 for Staphylococcus aureus were measured. M-246 and M-21 were obtained as commercial products, and as J-Q21 and J-Q12.1, those synthesized in Examples 6 and 7 were used.

S. aureus Mu50 = assay: microbe, parasite or virus in culture; format: cell-based, Staphylococcus aureus; settings: for MIC (mg/L) Mu50: Example 1, Tables 1 to 10; for MIC: Staphylococcus aureus, MU50, read-out: MIC (mg/L) Mu50, Example 1, Tables 1 to 10
Experimental: as §1, §2, §3, §4, §5

SMILES | MIC (mg/L) FDA209P [1] | MIC (mg/L) Mu50 (S. aureus Mu50) | MIC [1] | MIC (S. aureus Mu50) | MIC (mg/L) Mu50 (S. aureus Mu50; Hydrate)
O=c1c(-c2ccc3c(c2)OCCO3)coc2cc(O)cc(O)c12 [compound 106] | 64 mg/L (≈ 205 µM) | 64 mg/L (≈ 205 µM) |  |  | 
O=c1c(-c2ccc3c(c2)OCCCO3)coc2cc(O)cc(O)c12 [compound 107] |  |  | 128 mg/L (≈ 392 µM) | 128 mg/L (≈ 392 µM) | 
COc1ccc(-c2coc3cc(O)cc(OC)c3c2=O)cc1OC [compound 108] |  |  | 128 mg/L (≈ 390 µM) | 128 mg/L (≈ 390 µM) | 
CC(=O)Oc1cc(OC(C)=O)c2c(=O)c(-c3ccc4c(c3)OCCCO4)c(C)oc2c1 [compound 109] |  |  | 128 mg/L (≈ 302 µM) | 128 mg/L (≈ 302 µM) | 
COc1ccc(-c2coc3cc(OC4OC(CO)C(O)C(O)C4O)cc(O)c3c2=O)cc1 (stereo not drawn) [compound 110] | 128 mg/L (≈ 287 µM) | 128 mg/L (≈ 287 µM) |  |  | 
COc1cc(OC)c2c(=O)c(-c3ccc(OC)c(OC)c3)coc2c1 [compound 111] |  |  | > 128 mg/L | 128 mg/L (≈ 374 µM) | 
COc1cc(O)c2c(=O)c(-c3ccc(O)cc3)coc2c1 [compound 112] |  |  | > 128 mg/L | > 128 mg/L | 
O=c1c(-c2ccc(O)cc2)coc2cc(O)cc(O)c12 [compound 113] |  |  | 128 mg/L (≈ 474 µM) | 128 mg/L (≈ 474 µM) | 
CCOC(=O)c1oc2cc(O)cc(O)c2c(=O)c1-c1ccc(OC)c(OC)c1 [compound 114] |  |  | > 128 mg/L | > 128 mg/L | 
COc1ccc(-c2coc3cc(O)cc(O)c3c2=O)cc1 [compound 116] |  |  | 128 mg/L (≈ 450 µM) | 128 mg/L (≈ 450 µM) | 
COc1ccc(-c2coc3cc(O)cc(O)c3c2=O)cc1OC [compound 117] |  |  | > 128 mg/L | > 128 mg/L | 
COc1ccc(-c2c(C(F)(F)F)oc3cc(O)cc(O)c3c2=O)cc1OC [compound 118] |  |  | 128 mg/L (≈ 335 µM) | 64 mg/L (≈ 167 µM) | 
COc1ccc(-c2c(C)oc3cc(OC(C)=O)cc(OC(C)=O)c3c2=O)cc1 [compound 119] |  |  | > 128 mg/L | > 128 mg/L | 
O=c1c(-c2ccc(O[C@@H]3O[C@H](CO)[C@@H](O)[C@H](O)[C@H]3O)cc2)coc2cc(O)cc(O)c12 [compound 120] | >128 mg/L | >128 mg/L |  |  | 
COc1cc(OC)c2c(=O)c(-c3ccc(O)cc3)coc2c1 [compound 121] |  |  | > 128 mg/L | > 128 mg/L | 
CC1(CO)C=Cc2c(cc3occ(-c4ccc(O)cc4)c(=O)c3c2O)O1 (stereo not drawn) [compound 122] |  |  | > 128 mg/L | > 128 mg/L | 
O=C1CC(c2ccc(O)cc2)Oc2ccccc21 (stereo not drawn) [compound 123, 4′-Hydroxyflavanone] |  |  | 128 mg/L (≈ 533 µM) | 128 mg/L (≈ 533 µM) | 
O=C1CC(c2cccc(O)c2)Oc2ccccc21 (stereo not drawn) [compound 124, 3′-Hydroxyflavanone] |  |  | 128 mg/L (≈ 533 µM) | 128 mg/L (≈ 533 µM) | 
COc1ccc(C2CC(=O)c3c(O)cc(O)cc3O2)cc1O (stereo not drawn) [compound 125] |  |  | 128 mg/L (≈ 423 µM) | > 128 mg/L | 
O=C1CC(c2ccccc2)Oc2ccccc21 (stereo not drawn) [compound 126] |  |  | 128 mg/L (≈ 571 µM) | 128 mg/L (≈ 571 µM) | 
O=C1CC(c2ccc(O)cc2)Oc2cc(O)cc(O)c21 (stereo not drawn) [compound 128, 4′,5,7-Trihydroxyflavanone] |  |  | 128 mg/L (≈ 470 µM) | 128 mg/L (≈ 470 µM) | 
COc1cc(-c2[o+]c3cc(O)cc(O)c3cc2O)cc(OC)c1O [compound 130] | 128 mg/L | 128 mg/L |  |  | 
COc1cc(-c2[o+]c3cc(O)cc(O)c3cc2O)cc(O)c1O [compound 131] | 128 mg/L | 128 mg/L |  |  | 
O.Oc1cc(O)c2c(c1)OC(c1ccc(O)c(O)c1)C(O)C2 (stereo not drawn) [compound 133, 3,3′,4′,5,7-Flavanpentol Hydrate] | 128 mg/L |  |  |  | >128 mg/L
